Our source for the EC50 and Ki values is patent US9637477B2, “Therapeutic substituted pyrroles” (Allergan, Inc., priority 2014, dated 2017).

Experiment [1] addresses T1, EP2 (Homo sapiens, UniProt P43116). As to the kind of experiment: EP2 cAMP assay. The experiment is classed as cell-based. The source says: (§1) US 2007/0129552, incorporated by reference herein in its entirety, describes the methods used to obtain the in vitro data in the table below.
The target in experiment [2] is T2, EP4 (Homo sapiens, UniProt P35408). As to the kind of experiment: EP4 binding (Ki).
Excerpt: as §1

Experiment [3] has as its target T1, EP2. As to the kind of experiment: EP2 flipr functional assay. It is filed as cell-based.
Excerpt: as §1

For experiment [4], the target named is T2, EP4. As to the kind of experiment: EP4 flipr functional assay. The experiment is classed as cell-based.
Excerpt: as §1

The target in experiment [5] is T1, EP2. As to the kind of experiment: EP2 binding (Ki).
Excerpt: as §1

T1 sequence (P43116 whole entry): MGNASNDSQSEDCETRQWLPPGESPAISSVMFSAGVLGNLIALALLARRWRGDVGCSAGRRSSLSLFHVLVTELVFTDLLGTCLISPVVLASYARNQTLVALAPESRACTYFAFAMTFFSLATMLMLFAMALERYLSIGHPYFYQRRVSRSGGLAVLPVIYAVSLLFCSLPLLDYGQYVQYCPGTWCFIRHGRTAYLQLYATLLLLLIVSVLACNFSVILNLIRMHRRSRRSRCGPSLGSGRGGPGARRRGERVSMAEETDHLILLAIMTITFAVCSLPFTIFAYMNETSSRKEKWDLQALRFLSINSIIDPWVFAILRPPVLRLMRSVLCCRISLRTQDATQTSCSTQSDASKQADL
T2 sequence (P35408 whole entry): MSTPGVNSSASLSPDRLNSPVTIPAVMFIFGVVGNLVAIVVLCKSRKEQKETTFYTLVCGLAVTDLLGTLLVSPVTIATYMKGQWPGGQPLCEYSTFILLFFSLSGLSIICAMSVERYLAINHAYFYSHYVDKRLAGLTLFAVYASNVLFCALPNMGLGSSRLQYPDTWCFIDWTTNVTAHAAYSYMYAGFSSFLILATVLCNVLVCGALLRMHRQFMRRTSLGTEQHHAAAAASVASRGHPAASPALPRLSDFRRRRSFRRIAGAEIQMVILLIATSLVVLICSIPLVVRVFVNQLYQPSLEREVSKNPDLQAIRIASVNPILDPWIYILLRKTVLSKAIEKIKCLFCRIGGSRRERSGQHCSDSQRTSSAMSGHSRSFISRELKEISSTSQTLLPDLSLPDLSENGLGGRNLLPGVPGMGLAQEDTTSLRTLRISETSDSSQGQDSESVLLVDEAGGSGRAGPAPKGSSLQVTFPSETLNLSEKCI

For `CCCCCCc1ccc(-c2cccn2CCCc2ccc(C(=O)O)s2)cc1` [Example 1, 5-(3-(2-(4-hexylphenyl)-1H-pyrrol-1-yl)propyl)thiophene-2-carboxylic acid], the results for the EC50 on EP2 [1], at EP2 [3] and on EP4 [4] were 0.003 µM, 0.998 µM and above 10 µM, respectively. Moreover, the inhibition constant (Ki) at EP4 [2] worked out at 2.66 µM; on EP2 [5], 0.023 µM.

By EC50 is commonly meant the concentration giving half of the maximal effect. As usually defined, the Ki is the dissociation constant of the complex between target and ligand, obtained from inhibition or displacement.
